Measurements as given in publication PMC7287882, “Dual miRNases for Triple Incision of miRNA Target: Design Concept and Catalytic Performance” (Molecules, 2020).

Legend:
miR-17 = experiment: Gel-retardation assay, hybridization with miR-17; assay type: binding; settings: 50 mM Tris-HCl pH 7.0, 200 mM KCl, 1 mM EDTA, 37 °C, 45 min, mean of 3
From the text: We carried out a comparative analysis of the hybridization properties of the developed DCs with the corresponding SCs, which were the products of the first stage of the DCs synthesis. As discussed above, each SC consisted of the corresponding oligonucleotide A, which was complementary to the 5′-region of the matching miRNA target, and the catalytic peptide [LRLRG]2, attached to the 5′-end of this oligonucleotide via a thiohexyl linker (linker 2). […] Indeed, the level of binding of DCs to their miRNA targets reached 96, 90, 75, 55% at equimolar concentration (1 μM), and 99, 96, 92 and 69% at 5-fold excess of DCs over miR-17, miR-18a, miR-21 and miR-155, respectively (Figure 2). […]
The reaction mixture (4 µL) containing 50 mM Tris-HCl, pH 7.0, 200 mM KCl and 1 mM EDTA, 100 cpm (Cherenkov’s counting) of [^32P]-miRNA, 1 μM unlabeled miRNA, a conjugate at a concentration ranging from 0.1 to 10 μM was incubated at 37 °C for 45 min and quenched by adding of a loading buffer (20% ficoll, 0.025% bromophenol blue, 0.025% xylene cyanol). […] Formation of the complex miRNA/conjugate was analyzed by electrophoresis in 15% native PAAG at 4 °C. The gels were analyzed using Molecular Imager FX. The extent of binding of conjugate to miRNA was determined as a ratio of radioactivity measured in the complex to the total radioactivity applied onto the gel lane.

miR-21 = experiment: Ribonuclease activity assay with DC or ON and RNase H, miR-21; assay type: biochemical
Experimental: It is known that DNA-like antisense oligonucleotides after binding to target RNAs form a substrate for intracellular endonuclease RNases H. RNA hydrolysis in RNA-DNA heteroduplex by RNase H1 occurs at a distance of 6–10 nucleotides from the 5′-end of RNA (approximately one turn of the helix). Our design of the Dual conjugates here was carried out in such a way to ensure that their heteroduplexes with the matching miRNA sequences could serve as potential substrates for RNase H. To achieve that, we ensured that the length of the oligonucleotide recognition motifs A and B within the DC was 8–10 nt, which was expected to be sufficient for interaction and cleavage by RNase H (see Figure 1 and Table 1). As indicated above, a few adenine aromatic basis within each recognition motifs A and B were replaced with 2-aminoadenines to enhance the hybridization ability of the DC with miRNA. […] In order to verify this, as well as to evaluate the ability of RNase H to contribute to the miRNA cleavage catalyzed by DC, we studied the kinetics of the target miRNA cleavage performed (1) by the DC alone; (2) by RNase H, when the target miRNA was hybridized with the nonconjugated Dual oligonucleotide (ON); and (3) by both DC and RNase H present in the same reaction mixture. The study was performed against miR-17, miR-155 and miR-21 using a 20-fold excess of DCs or respective oligonucleotides over the matching miRNA (see Table 1 for sequences).
Figure 6 Cleavage kinetics of 5′-[^32P]-labeled miRNAs by DCs and/or RNase H. (a,d,g). Radioautographs of 18% denaturing PAAG showing the profiles of cleavage of miR-17, miR-155 and miR-21, respectively. Duplexes formed by 5′-[^32P]-miRNA (1 µM) and DC or ON (20 µM) were incubated at 37 °C for 48–72 h. RNase H was taken in the concentration of 5 or 100 u/mL. Lanes Im and T1–imidazole ladder and partial RNA digestion with RNase T1, respectively; control–RNA was incubated in the absence of DC or ON and in the presence of RNase H (100 u/mL); (b,e,h) Time dependency of cleavage of miR-17, miR-155 and miR-21, respectively, by DCs and/or RNase H. Data are presented as mean ± s.e. *—indicates statistically significant difference with p < 0.05; (c,f,i). […]
The reaction mixture (10 µL) containing 20 mM Tris-HCl, pH 7.8, 40 mM KCl, 8 mM MgCl2, 1 mM DTT, 0.02 mg/mL BSA, 800 cpm (Cherenkov’s counting) of [^32P]-miRNA, 1 µM unlabeled miRNA, 20 µM either DC or Dual oligonucleotide was incubated at 37 °C for 20 min then RNase H (5 or 100 U/mL) was added and the mixture was further incubated for 48 h. Aliquots were taken at 0, 1, 6, 24 and 48 h then the reaction was quenched, RNA cleavage products were collected and analyzed as described above.

Row | Substance | level of binding of DC to miRNA target (miR-17; 5-fold excess of DC over miRNA (1 µM)) [%] | level of binding of DC to miRNA target (miR-17; equimolar, DC 1 µM : miRNA 1 µM, 15% native PAAG) [%] | increase in rate of cleavage by DC in the presence of RNase H (miR-21; RNase H 5 u/mL, versus DC alone) [fold] | total extent of cleavage by DC and RNase H (miR-21; RNase H 5 u/mL, miRNA 1 µM, DC 20 µM, buffer (2), 37 °C) [%] | increase in rate of cleavage compared with DC alone (miR-21; RNase H 100 u/mL) [fold] | cleavage by DC and RNase H (miR-21; RNase H 100 u/mL, completed in the first hour of incubation) [%]
1 | CTACCTGC–linker 1–[GRLRL]2–linker 2–AAGCACTTTG [miRNA-17-DC, Dual oligonucleotide-peptide conjugate targeted to miR-17: catalytic peptide [LRLRG]2 between two 2-aminoadenine-containing oligodeoxyribonucleotides] | 99 | 96 | – | – | – | –
2 | TCAACATC–linker 1–[GRLRL]2–linker 2–GATAAGCTA [miRNA-21-DC, Dual oligonucleotide-peptide conjugate targeted to miR-21: catalytic peptide [LRLRG]2 between two 2-aminoadenine-containing oligodeoxyribonucleotides] | – | – | 4 | 40 | 20 | 100
